Assays:
[1] = cited from earlier work
[2] = Stability of reboxetine methanesulfonate in the presence of traditional poly(alkylene oxide) polymers; type: physicochemical
Text: Substantial levels of various impurities are formed, which increase in concentration over time. The predominant impurity that is formed is the n-formyl species of reboxetine methanesulfonate, known as n-formyl reboxetine.
Poly(alkylene oxide) polymer consists of long chains of the polymer. Irradiation and oxidation cause these chains to be cleaved, leaving inorganic and organic formates at the ends of the chains. As more cleaving occurs, there are higher levels of formates present.

| SMILES | Pka [1] | stability in the presence of traditional poly(alkylene oxide) polymer subjected to irradiation processes or oxidation [2] | stability in the presence of traditional polyethylene oxides [2] |
| --- | --- | --- | --- |
| C/C(=C/C(=O)O)C(=O)O [citraconic acid] | 2.48 | – | – |
| F [hydrofluoric acid] | 3.14 | – | – |
| CCOc1ccccc1OC(c1ccccc1)C1CNCCO1.CS(=O)(=O)O (centres unmarked) [reboxetine methanesulfonate] | – | substantially less stable | unstable |
| O=S(O)(O)=S [thiosurfuric acid] | 2.00 | – | – |

From patent US20040033263A1, “Reduced formate poly(alkylene oxides) with secondary amines for reducing impurity formation” (priority 2002, published 2004)
